# Measured values published in patent US20140350081A1, “INSECT G-COUPLED RECEPTORS USEFUL AS TARGETS FOR INSECTICIDES AND COMPOUNDS AND REAGENTS IDENTIFIED USING THE SAME” (priority 2011, published 2014).
# Like-named read-outs stand apart in the source and are kept apart here.
# Legend:
# AaDOP2 [1] = biological target: T1, AaDOP2 (Aedes aegypti, UniProt H6D5H2); experiment: AaDOP2 agonist screen against the LOPAC1280 library; assay type: cell-based
# Isdop2 = Isdop2 (Ixodes scapularis, UniProt A0ACM8DGL0); experiment: cell-based; conditions: read-out: % Inhibition (of response to dopamine), Isdop2 screen
# Ae. aegypti L3 larvae [2] = conditions: 400 μM, three independent experiments
# Ae. aegypti L3 larvae [3] = experiment: whole plant or invertebrate; conditions: Aedes aegypti
# AaDOP2 [4] = biological target: T1, AaDOP2; experiment: LOPAC1280 antagonist screen in HEK-CRELuc-Aadop2 cells; assay type: cell-based
# AaDOP2 [5] = biological target: T1, AaDOP2; experiment: HTRF cAMP accumulation concentration response assay (Cisbio Dynamic 2); assay type: cell-based; conditions: AaDOP2 expressing cells in the presence of dopamine; No Inhibition = <10% inhibition at 3 μM test compound; read-out: IC50 ± S.E.M. (nM), HTRF cAMP assay
# [6] = 10 μM compound, percent of response to 1 μM dihydrexidine
# T1 sequence (H6D5H2 entry or part of it): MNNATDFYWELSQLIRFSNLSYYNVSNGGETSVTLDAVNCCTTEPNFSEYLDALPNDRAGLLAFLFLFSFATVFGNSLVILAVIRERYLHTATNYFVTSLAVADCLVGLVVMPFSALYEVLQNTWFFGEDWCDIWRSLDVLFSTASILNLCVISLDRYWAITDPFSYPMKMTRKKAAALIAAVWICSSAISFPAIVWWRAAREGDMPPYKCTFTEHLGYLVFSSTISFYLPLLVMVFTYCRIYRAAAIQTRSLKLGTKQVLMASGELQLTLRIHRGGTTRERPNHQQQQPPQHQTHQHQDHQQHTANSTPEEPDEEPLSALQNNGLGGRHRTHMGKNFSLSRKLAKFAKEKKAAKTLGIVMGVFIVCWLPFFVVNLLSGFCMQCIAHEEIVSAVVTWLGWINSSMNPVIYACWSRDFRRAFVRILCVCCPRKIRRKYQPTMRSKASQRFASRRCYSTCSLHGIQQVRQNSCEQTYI
# Sequence of Isdop2 (A0ACM8DGL0 entry or part of it): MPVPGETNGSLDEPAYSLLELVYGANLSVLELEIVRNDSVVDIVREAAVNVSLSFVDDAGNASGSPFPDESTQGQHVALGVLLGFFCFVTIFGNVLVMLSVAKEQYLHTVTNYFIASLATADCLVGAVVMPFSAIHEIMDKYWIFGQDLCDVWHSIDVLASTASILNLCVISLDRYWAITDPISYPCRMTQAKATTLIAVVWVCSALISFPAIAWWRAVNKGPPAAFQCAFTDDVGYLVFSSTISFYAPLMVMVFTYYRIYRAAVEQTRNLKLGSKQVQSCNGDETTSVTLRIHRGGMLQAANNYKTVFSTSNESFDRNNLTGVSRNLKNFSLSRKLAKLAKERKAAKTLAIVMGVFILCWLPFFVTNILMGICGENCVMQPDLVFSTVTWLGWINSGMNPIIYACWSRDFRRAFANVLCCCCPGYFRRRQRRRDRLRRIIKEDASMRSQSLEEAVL
compound,measurement,setting,value
C=CCN1CCc2cccc3c2[C@H]1Cc1ccc(O)c(O)c1-3 [R(−)-N-Allyl-NPA],% of DHX,AaDOP2 [1]; [6],56%
C=CCN1CCc2c(cc(O)c(O)c2Cl)C(c2ccccc2)C1 (racemic) [(±)-Chloro-APB],% of DHX,AaDOP2 [1]; [6],105%
Oc1ccc(C2CNCCc3c2cc(O)c(O)c3Cl)cc1 (stereo not drawn) [Fenoldopam],% of DHX,AaDOP2 [1]; [6],31%
CCN(c1nc(N)c(C(=O)NC(=N)N)nc1Cl)C(C)C [EIPA],% of DHX,AaDOP2 [1]; [6],73%
"NC1CCc2cc(O)c(O)cc2C1 (stereo not drawn) [6,7-ADTN]",% of DHX,AaDOP2 [1]; [6],131%
CC[C@@H](CO)NC(=O)[C@@H]1C=C2c3cccc4[nH]cc(c34)C[C@H]2N(C)C1 [Methylergonovine],% of DHX,AaDOP2 [1]; [6],47%
CCCCCCCC/C=C\CCCCCCCC(=O)NCCc1ccc(O)c(O)c1 [N-Oleoyldopamine],% of DHX,AaDOP2 [1]; [6],38%
CNCCc1ccc(O)c(O)c1 [N-Methyldopamine],% of DHX,AaDOP2 [1]; [6],107%
CC1=C[C@@H]2c3cccc4[nH]cc(c34)C[C@H]2N(C)C1 [Agroclavine],% of DHX,AaDOP2 [1]; [6],93%
CCNC(=O)[C@H]1O[C@@H](n2cnc3c(NCc4ccccc4)ncnc32)[C@@H](O)C1O (stereo partly drawn) [N6-Benzyl-NECA],% of DHX,AaDOP2 [1]; [6],36%
CN(C)CCCN1c2ccccc2CCc2ccc(Cl)cc21 [Clomipramine],inhibition at 10 µM,Isdop2,84%
same,Toxicity to Aedes aegypti larvae (mortality) 24 hours,Ae. aegypti L3 larvae [2],70%
same,mortality at 400 µM,"Ae. aegypti L3 larvae [3]; 24 h, read-out: Toxicity to Aedes aegypti larvae (mortality) 24 hours, 400 μM, L3 larvae, three independent experiments",70 to 100%
same,mortality at 400 µM,"Ae. aegypti L3 larvae [3]; 48 h, read-out: Toxicity to Aedes aegypti larvae (mortality) 48 hours, 400 μM, L3 larvae, three independent experiments",93%
same,mortality at 400 µM,"Ae. aegypti L3 larvae [3]; 72 h, read-out: Toxicity to Aedes aegypti larvae (mortality) 72 hours, 400 μM, L3 larvae, three independent experiments",93%
"CN(C)CCCN1c2ccccc2CCc2ccccc21 [Imipramine, 3-(10,11-dihydro-5H-dibenzo[b,f]azepin-5-yl)-N,N-dimethylpropan-1-amine]",% of the SCH23390 effect,"AaDOP2 [4]; 10 μM compound, 300 nM dopamine, quadruplicate",96%
same,% inhibition of DA activity (Aedes cell-based assay screen),AaDOP2 [4]; LOPAC1280 screen hits,96%
same,inhibition at 10 µM,Isdop2,70%
same,IC50,AaDOP2 [5],360 ± 30 nM
same,mortality at 400 µM,"Ae. aegypti L3 larvae [3]; 24 h, read-out: Toxicity to Aedes aegypti larvae (mortality) 24 hours",53%
same,mortality at 400 µM,"Ae. aegypti L3 larvae [3]; 48 h, read-out: Toxicity to Aedes aegypti larvae (mortality) 48 hours",63%
same,mortality at 400 µM,"Ae. aegypti L3 larvae [3]; 72 h, read-out: Toxicity to Aedes aegypti larvae (mortality) 72 hours",80%
C[C@H]1C[C@H]2[C@@H]3CCC4=CC(=O)C=C[C@]4(C)[C@@]3(F)[C@@H](O)C[C@]2(C)[C@@]1(O)C(=O)CO [Betamethasone],% of DHX,AaDOP2 [1]; [6],101%
CNC[C@H](O)c1ccc(O)c(O)c1 (racemic) [(±)-Epinephrine],% of DHX,AaDOP2 [1],81%
